{"source": "patent US11629171B2", "about": "“Beta-hairpin peptidomimetics” (POLYPHOR AG, priority 2017, dated 2023)", "key": {"[1]": {"system": "human red blood cells (hRBC)", "assay": "Hemolysis", "type": "cell-based", "conditions": "red cells of human, 1 h, 200", "outline": "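Hemoglobin release from PBS-washed hRBC at 20% (v/v), incubated 1 h at 37° C with peptides at 200 μg/mL, is measured at 540 nm. Values are blank corrected and given as a fraction of Triton X-100 lysis × 100%.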"}, "[2]": {"system": "Enterobacter cloacae 848840", "type": "cell-based", "conditions": "848840", "outline": "(§1)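 Visible-growth endpoint after 18-20 h at 35° C defines the MIC (μg/mL). Setup: CLSI broth microdilution, MH-II cation-adjusted broth with P-80 at 0.002% final, inoculum of approximately 10^6 CFU/mL, two-fold serial peptide dilutions.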"}, "Escherichia coli 926415": {"system": "Escherichia coli 926415", "type": "cell-based", "conditions": "926415", "outline": "as §1"}, "[3]": {"system": "Klebsiella pneumoniae 968733", "type": "cell-based", "conditions": "968733", "outline": "as §1"}, "[4]": {"system": "Escherichia coli ATCC 25922", "type": "cell-based", "conditions": "ATCC 25922", "outline": "as §1"}, "[5]": {"system": "Acinetobacter baumannii DSM 30008", "type": "cell-based", "conditions": "DSM 30008", "outline": "as §1"}, "[6]": {"system": "Klebsiella pneumoniae SSI #3010", "type": "cell-based", "conditions": "SSI #3010", "outline": "as §1"}, "[7]": {"system": "Pseudomonas aeruginosa ATCC 27853", "type": "cell-based", "conditions": "ATCC 27853", "outline": "as §1"}, "[8]": {"system": "Acinetobacter baumannii 872842", "type": "cell-based", "conditions": "872842", "outline": "as §1"}, "male ICR mice": {"system": "male ICR mice", "assay": "Tolerability in a mouse model (Maximum Tolerated Dose assay)", "type": "in vivo", "conditions": "2 × 40 mg/kg s.c. at a 12-hr interval, groups of 3", "outline": "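Groups of 3 male ICR mice weighing 23±3 g received two subcutaneous doses, 12 h apart, of 30 or 40 mg/kg in saline adjusted to pH 6.5-7.6. Observation for 30 min after each dose covered autonomic effects and acute toxicity, including death.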"}}, "note": "Where a SMILES comes first, the peptide text is derived from it. Bridges are numbered along the chain shown (N, C = ends). Roman numbers before positions name the chains, in order. [ ]: non-standard residue; d: D form. dDab = NCC[C@@H](N)C(=O)O; Dab = NCC[C@H](N)C(=O)O; Dap = NC[C@H](N)C(=O)O", "data": [{"smiles": "CC[C@H](C)[C@@H]1NC(=O)[C@H](CO)NC(=O)[C@H](Cc2c[nH]c3ccccc23)NC(=O)[C@H](CO)NC(=O)[C@@H](CCN)NC(=O)[C@H](CCC(=O)N[C@@H](CCN)C(=O)N[C@H](C(=O)N[C@@H](CN)C(=O)N[C@H]2CCNC(=O)[C@H]([C@@H](C)O)NC(=O)[C@H](CCN)NC(=O)[C@H](CCN)NC(=O)[C@H]([C@@H](C)O)NC(=O)[C@@H](CC(C)C)NC(=O)[C@H](CCN)NC2=O)[C@@H](C)O)NC(=O)[C@H](CCN)NC(=O)[C@H](Cc2ccc(O)cc2)NC(=O)[C@@H](NC(=O)[C@@H](NC(C)=O)C(C)C)CSSC[C@@H](C(=O)N[C@@H](CO)C(=O)N[C@H](C)C(N)=O)NC1=O", "note": "[Ex. 380] (I: Ac-VCY[Dab]E[dDab]SWSICS[dA]-NH2 / II: [Dab]T[Dap][Dab][Dab][dL]T[Dab][Dab]T; disulfide I:2-I:11; amide I:5-II:N; lactam II:4-II:C)", "values": [{"measurement": "Hemolysis at 200 μg/mL", "setting": "[1]", "result": "<1", "unit": "%"}, {"measurement": "MIC", "setting": "[2]", "result": 0.125, "unit": "µg/mL"}, {"measurement": "MIC", "setting": "Escherichia coli 926415", "result": 0.125, "unit": "µg/mL"}, {"measurement": "MIC", "setting": "[3]", "result": 0.5, "unit": "µg/mL"}, {"measurement": "Escherichia coli ATCC 25922 MIC", "setting": "[4]", "result": 0.03125, "unit": "µg/mL"}, {"measurement": "Acinetobacter baumannii DSM 30008 MIC", "setting": "[5]", "result": 0.0625, "unit": "µg/mL"}, {"measurement": "Klebsiella pneumoniae SSI #3010 MIC", "setting": "[6]", "result": 0.0625, "unit": "µg/mL"}, {"measurement": "Pseudomonas aeruginosa ATCC 27853 MIC", "setting": "[7]", "result": 0.125, "unit": "µg/mL"}, {"measurement": "MIC", "setting": "[8]", "result": 0.25, "unit": "µg/mL"}, {"measurement": "Mortality and dose", "setting": "male ICR mice", "result": "0/3 died at 2 × 40 mg/kg"}]}]}
